From ChEMBL document CHEMBL1159254, “Isolation and structure of two novel muscarinic receptor antagonists” (J Nat Prod, 1995)
pIC50: −log10 of the molar value.

Experiments:
[1] = molecular target: T1, Muscarinic acetylcholine receptor M1 (Homo sapiens, UniProt P11229); assay: Displacement of QNB from muscarinic M1 receptor
T1 sequence (P11229 whole entry): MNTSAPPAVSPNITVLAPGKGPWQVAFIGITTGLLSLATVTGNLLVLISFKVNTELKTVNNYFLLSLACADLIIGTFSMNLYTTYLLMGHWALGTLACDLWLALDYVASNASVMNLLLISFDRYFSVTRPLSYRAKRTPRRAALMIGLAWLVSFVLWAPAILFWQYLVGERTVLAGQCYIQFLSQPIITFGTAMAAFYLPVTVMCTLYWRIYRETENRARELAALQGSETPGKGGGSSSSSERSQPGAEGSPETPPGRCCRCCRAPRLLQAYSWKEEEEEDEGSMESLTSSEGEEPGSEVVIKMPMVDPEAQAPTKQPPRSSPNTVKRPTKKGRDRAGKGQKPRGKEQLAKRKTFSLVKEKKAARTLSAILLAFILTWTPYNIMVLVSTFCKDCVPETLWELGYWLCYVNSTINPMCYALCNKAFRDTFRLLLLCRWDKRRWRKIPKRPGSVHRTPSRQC

[2] = molecular target: T2, Muscarinic acetylcholine receptor M2 (Homo sapiens, UniProt P08172); assay: Displacement of QNB from muscarinic M2 receptor
T2 sequence (P08172 whole entry): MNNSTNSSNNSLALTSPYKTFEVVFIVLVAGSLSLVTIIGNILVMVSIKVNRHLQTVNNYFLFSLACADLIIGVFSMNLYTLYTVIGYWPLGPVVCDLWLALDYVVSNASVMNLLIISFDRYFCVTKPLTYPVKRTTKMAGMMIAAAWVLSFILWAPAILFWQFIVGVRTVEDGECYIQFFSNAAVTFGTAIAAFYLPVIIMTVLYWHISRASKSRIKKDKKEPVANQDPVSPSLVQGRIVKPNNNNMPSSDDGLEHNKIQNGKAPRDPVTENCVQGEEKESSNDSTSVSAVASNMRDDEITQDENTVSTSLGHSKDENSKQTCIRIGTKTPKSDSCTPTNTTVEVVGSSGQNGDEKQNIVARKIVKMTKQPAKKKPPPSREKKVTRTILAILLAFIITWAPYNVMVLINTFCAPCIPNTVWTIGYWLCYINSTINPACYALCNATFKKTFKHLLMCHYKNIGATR

[3] = molecular target: T3, Muscarinic acetylcholine receptor M4 (Homo sapiens, UniProt P08173); assay: Displacement of QNB from muscarinic M4 receptor
T3 sequence (P08173 whole entry): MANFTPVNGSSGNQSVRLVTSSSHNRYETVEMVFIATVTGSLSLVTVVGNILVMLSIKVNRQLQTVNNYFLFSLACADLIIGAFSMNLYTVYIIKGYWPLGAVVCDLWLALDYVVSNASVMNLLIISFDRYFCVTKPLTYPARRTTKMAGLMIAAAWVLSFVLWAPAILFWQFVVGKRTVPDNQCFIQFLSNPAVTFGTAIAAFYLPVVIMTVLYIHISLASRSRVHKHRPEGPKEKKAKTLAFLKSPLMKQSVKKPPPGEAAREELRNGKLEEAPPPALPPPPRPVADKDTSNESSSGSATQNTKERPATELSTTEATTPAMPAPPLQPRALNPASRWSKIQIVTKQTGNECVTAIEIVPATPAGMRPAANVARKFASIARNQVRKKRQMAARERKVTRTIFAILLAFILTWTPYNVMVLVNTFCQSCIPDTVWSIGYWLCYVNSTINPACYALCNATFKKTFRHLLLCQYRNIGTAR

SMILES	pIC50 [1]	pIC50 [2]	pIC50 [3]
NC(N)=NCCCCCCCCC(=O)C(N)CCCN=C(N)N (stereo unspecified)	8.15	8.22	8.00
CC(=O)NC(CCCNC(=N)N)C(=O)CCCCCCCCNC(=N)N (stereo unspecified)	5.85	6.02	6.04
